# Measured values from ChEMBL document CHEMBL1201862, “PubChem BioAssay data set” (2004).
#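 In this assay, cells in 96-well plates receive the compound at five concentrations for 48 hours. Endpoints are linearly interpolated between the surrounding concentrations. The concentration for 50% growth inhibition is given as GI50.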 Calls of active or inactive are those of the source. Cut-off read from the data, not from the text of the source: active = GI50 up to about 1.1 µM and inactive = higher.
# Experiments:
# Assay in all cases: DTP human tumour cell line panel, 48 h
# UACC-257 = test system: UACC-257
# OVCAR-3 = test system: OVCAR-3
# SK-MEL-5 = test system: SK-MEL-5
# DMS-273 = test system: DMS-273
# UACC-62 = test system: UACC-62
# HCC 2998 = test system: HCC 2998
# IGROV-1 = test system: IGROV-1
# SNB-19 = test system: SNB-19
# NCI-H226 = test system: NCI-H226
# HOP-18 = test system: HOP-18
# SF-539 = test system: SF-539
# SN12C = test system: SN12C
# M14 = test system: M14
# SW-620 = test system: SW-620
# SK-MEL-28 = test system: SK-MEL-28
# NCI-H460 = test system: NCI-H460
# RPMI-8226 = test system: RPMI-8226
# SK-MEL-2 = test system: SK-MEL-2
# XF498 = test system: XF498
# HCT-116 = test system: HCT-116
# OVCAR-8 = test system: OVCAR-8
# ACHN = test system: ACHN
# CAKI-1 = test system: CAKI-1
# LXFL 529 = test system: LXFL 529
# CCRF-CEM = test system: CCRF-CEM
# TK-10 = test system: TK-10
# OVCAR-4 = test system: OVCAR-4
# UO-31 = test system: UO-31
# KM12 = test system: KM12
# A498 = test system: A498
# COLO 205 = test system: COLO 205
# OVCAR-5 = test system: OVCAR-5
# EKVX = test system: EKVX
# LOX IMVI = test system: LOX IMVI
# NCI-H23 = test system: NCI-H23
# DLD-1 = test system: DLD-1
# SF-268 = test system: SF-268
# SNB-75 = test system: SNB-75
# A549 = test system: A549
# SF-295 = test system: SF-295
# DMS-114 = test system: DMS-114
# HT-29 = test system: HT-29
# U-251 = test system: U-251
# M19-MEL = test system: M19-MEL
# HL-60 = test system: HL-60
# Malme-3M = test system: Malme-3M
# SNB-78 = test system: SNB-78
# 786-0 = test system: 786-0
# KM-20L2 = test system: KM-20L2
# K562 = test system: K562
# MOLT-4 = test system: MOLT-4
# RXF 393 = test system: RXF 393
# SK-OV-3 = test system: SK-OV-3
# HCT-15 = test system: HCT-15
# HOP-62 = test system: HOP-62
# SR = test system: SR
# NCI-H522 = test system: NCI-H522
# HOP-92 = test system: HOP-92
# MDA-MB-231 = test system: MDA-MB-231
# Hs-578T = test system: Hs-578T
# MDA-MB-435 = test system: MDA-MB-435
# MCF7 = test system: MCF7
# BT-549 = test system: BT-549
# DU-145 = test system: DU-145
# T47D = test system: T47D
compound,measurement,setting,value
C=C1C(=O)OC2C1C(OC(=O)/C(=C/C)COC(C)=O)CC1(CO1)C1C(OC(=O)/C(=C/C)CO)C=C(C)C21 (stereo not given),GI50,UACC-257,2.04 µM (inactive)
same,GI50,OVCAR-3,1.14 µM (inactive)
same,GI50,SK-MEL-5,2.29 µM (inactive)
same,GI50,DMS-273,1.73 µM (inactive)
same,GI50,UACC-62,1.59 µM (inactive)
same,GI50,HCC 2998,1.92 µM (inactive)
same,GI50,IGROV-1,1.89 µM (inactive)
same,GI50,SNB-19,3.36 µM (inactive)
same,GI50,NCI-H226,1.65 µM (inactive)
same,GI50,HOP-18,1.34 µM (inactive)
same,GI50,SF-539,5.81 µM (inactive)
same,GI50,SN12C,1.82 µM (inactive)
same,GI50,M14,1.67 µM (inactive)
same,GI50,SW-620,0.736 µM (active)
same,GI50,SK-MEL-28,1.82 µM (inactive)
same,GI50,NCI-H460,6.98 µM (inactive)
same,GI50,RPMI-8226,0.655 µM (active)
same,GI50,SK-MEL-2,1.87 µM (inactive)
same,GI50,XF498,1.45 µM (inactive)
same,GI50,HCT-116,1.63 µM (inactive)
same,GI50,OVCAR-8,0.564 µM (active)
same,GI50,ACHN,1.9 µM (inactive)
same,GI50,CAKI-1,0.502 µM (active)
same,GI50,LXFL 529,0.427 µM (active)
same,GI50,CCRF-CEM,0.333 µM (active)
same,GI50,TK-10,2.3 µM (inactive)
same,GI50,OVCAR-4,2.86 µM (inactive)
same,GI50,UO-31,3.14 µM (inactive)
same,GI50,KM12,3.94 µM (inactive)
same,GI50,A498,3.03 µM (inactive)
same,GI50,COLO 205,1.09 µM (active)
same,GI50,OVCAR-5,12.2 µM (inactive)
same,GI50,EKVX,2 µM (inactive)
same,GI50,LOX IMVI,3.19 µM (inactive)
same,GI50,NCI-H23,1.63 µM (inactive)
same,GI50,DLD-1,1.34 µM (inactive)
same,GI50,SF-268,2.75 µM (inactive)
same,GI50,SNB-75,2.26 µM (inactive)
same,GI50,A549,6.9 µM (inactive)
same,GI50,SF-295,5.16 µM (inactive)
same,GI50,DMS-114,1.85 µM (inactive)
same,GI50,HT-29,1.64 µM (inactive)
same,GI50,U-251,15.1 µM (inactive)
same,GI50,M19-MEL,1.79 µM (inactive)
same,GI50,HL-60,0.446 µM (active)
same,GI50,Malme-3M,1.78 µM (inactive)
same,GI50,SNB-78,1.65 µM (inactive)
same,GI50,786-0,1.66 µM (inactive)
same,GI50,KM-20L2,2.52 µM (inactive)
same,GI50,K562,1.6 µM (inactive)
same,GI50,MOLT-4,0.378 µM (active)
same,GI50,RXF 393,0.394 µM (active)
same,GI50,SK-OV-3,17.1 µM (inactive)
same,GI50,HCT-15,1.59 µM
C=C/C=C(\NC(=O)C(Cl)(Cl)Cl)[Si](C)(C)C,GI50,UACC-257,> 100 µM (inactive)
same,GI50,HOP-62,> 100 µM (inactive)
same,GI50,OVCAR-3,> 100 µM (inactive)
same,GI50,SK-MEL-5,> 100 µM (inactive)
same,GI50,DMS-273,> 100 µM (inactive)
same,GI50,UACC-62,> 100 µM (inactive)
same,GI50,HCC 2998,> 100 µM (inactive)
same,GI50,IGROV-1,> 100 µM (inactive)
same,GI50,SNB-19,> 100 µM (inactive)
same,GI50,NCI-H226,> 100 µM (inactive)
same,GI50,HOP-18,> 100 µM (inactive)
same,GI50,SR,> 100 µM (inactive)
same,GI50,SF-539,> 100 µM (inactive)
same,GI50,SN12C,> 100 µM (inactive)
same,GI50,M14,> 100 µM (inactive)
same,GI50,SW-620,> 100 µM (inactive)
same,GI50,NCI-H522,> 100 µM (inactive)
same,GI50,SK-MEL-28,> 100 µM (inactive)
same,GI50,NCI-H460,> 100 µM (inactive)
same,GI50,RPMI-8226,> 100 µM (inactive)
same,GI50,SK-MEL-2,> 100 µM (inactive)
same,GI50,XF498,> 100 µM (inactive)
same,GI50,HCT-116,> 100 µM (inactive)
same,GI50,OVCAR-8,> 100 µM (inactive)
same,GI50,ACHN,> 100 µM (inactive)
same,GI50,LXFL 529,> 100 µM (inactive)
same,GI50,CCRF-CEM,> 100 µM (inactive)
same,GI50,TK-10,> 100 µM (inactive)
same,GI50,OVCAR-4,> 100 µM (inactive)
same,GI50,UO-31,> 100 µM (inactive)
same,GI50,KM12,> 100 µM (inactive)
same,GI50,A498,> 100 µM (inactive)
same,GI50,COLO 205,> 100 µM (inactive)
same,GI50,OVCAR-5,> 100 µM (inactive)
same,GI50,EKVX,> 100 µM (inactive)
same,GI50,LOX IMVI,> 100 µM (inactive)
same,GI50,NCI-H23,> 100 µM (inactive)
same,GI50,DLD-1,> 100 µM (inactive)
same,GI50,SF-268,> 100 µM (inactive)
same,GI50,SNB-75,> 100 µM (inactive)
same,GI50,A549,> 100 µM (inactive)
same,GI50,SF-295,> 100 µM (inactive)
same,GI50,DMS-114,> 100 µM (inactive)
same,GI50,HT-29,> 100 µM (inactive)
same,GI50,U-251,> 100 µM (inactive)
same,GI50,M19-MEL,> 100 µM (inactive)
same,GI50,HL-60,> 100 µM (inactive)
same,GI50,Malme-3M,> 100 µM (inactive)
same,GI50,SNB-78,> 100 µM (inactive)
same,GI50,786-0,> 100 µM (inactive)
same,GI50,KM-20L2,> 100 µM (inactive)
same,GI50,K562,> 100 µM (inactive)
same,GI50,MOLT-4,> 100 µM (inactive)
same,GI50,RXF 393,> 100 µM (inactive)
same,GI50,HOP-92,> 100 µM (inactive)
same,GI50,SK-OV-3,> 100 µM (inactive)
same,GI50,HCT-15,> 100 µM
COc1cccc2c1C(=O)C=CC2=O,GI50,UACC-257,15.5 µM (inactive)
same,GI50,HOP-62,19.9 µM (inactive)
same,GI50,OVCAR-3,1.85 µM (inactive)
same,GI50,SK-MEL-5,15.3 µM (inactive)
same,GI50,DMS-273,15 µM (inactive)
same,GI50,UACC-62,10.9 µM (inactive)
same,GI50,HCC 2998,15.3 µM (inactive)
same,GI50,IGROV-1,12.2 µM (inactive)
same,GI50,SNB-19,15.5 µM (inactive)
same,GI50,NCI-H226,19.1 µM (inactive)
same,GI50,HOP-18,10.4 µM (inactive)
same,GI50,SR,0.269 µM (active)
same,GI50,SF-539,16.1 µM (inactive)
same,GI50,SN12C,14 µM (inactive)
same,GI50,M14,8.49 µM (inactive)
same,GI50,SW-620,6.18 µM (inactive)
same,GI50,NCI-H522,2.39 µM (inactive)
same,GI50,SK-MEL-28,17.5 µM (inactive)
same,GI50,NCI-H460,15.6 µM (inactive)
same,GI50,RPMI-8226,2.1 µM (inactive)
same,GI50,SK-MEL-2,10.1 µM (inactive)
same,GI50,XF498,2.52 µM (inactive)
same,GI50,HCT-116,3.44 µM (inactive)
same,GI50,OVCAR-8,3.58 µM (inactive)
same,GI50,ACHN,4.39 µM (inactive)
same,GI50,MDA-MB-231,2.15 µM (inactive)
same,GI50,CAKI-1,7.66 µM (inactive)
same,GI50,LXFL 529,2.33 µM (inactive)
same,GI50,CCRF-CEM,0.281 µM (active)
same,GI50,TK-10,14.2 µM (inactive)
same,GI50,Hs-578T,15.4 µM (inactive)
same,GI50,OVCAR-4,1.95 µM (inactive)
same,GI50,MDA-MB-435,10.1 µM (inactive)
same,GI50,UO-31,15.4 µM (inactive)
same,GI50,KM12,9.82 µM (inactive)
same,GI50,A498,16.2 µM (inactive)
same,GI50,COLO 205,7.06 µM (inactive)
same,GI50,OVCAR-5,18.9 µM (inactive)
same,GI50,EKVX,18.5 µM (inactive)
same,GI50,MCF7,1.93 µM (inactive)
same,GI50,NCI-H23,14.8 µM (inactive)
same,GI50,DLD-1,7.19 µM (inactive)
same,GI50,SF-268,6.73 µM (inactive)
same,GI50,SNB-75,14.8 µM (inactive)
same,GI50,A549,20 µM (inactive)
same,GI50,BT-549,15.5 µM (inactive)
same,GI50,SF-295,15.6 µM (inactive)
same,GI50,DMS-114,4.92 µM (inactive)
same,GI50,HT-29,11 µM (inactive)
same,GI50,U-251,6.81 µM (inactive)
same,GI50,M19-MEL,4.45 µM (inactive)
same,GI50,HL-60,0.32 µM (active)
same,GI50,Malme-3M,15.5 µM (inactive)
same,GI50,SNB-78,4.54 µM (inactive)
same,GI50,786-0,11.5 µM (inactive)
same,GI50,KM-20L2,16.7 µM (inactive)
same,GI50,K562,1.32 µM (inactive)
same,GI50,DU-145,19.2 µM (inactive)
same,GI50,MOLT-4,0.526 µM (active)
same,GI50,RXF 393,6.76 µM (inactive)
same,GI50,HOP-92,1.99 µM (inactive)
same,GI50,SK-OV-3,21.8 µM (inactive)
same,GI50,HCT-15,7.85 µM
same,GI50,T47D,2.22 µM (inactive)
